Test system: L. major lysate proteins
Assay: Multitargeted bead mixture chemoproteomics, single concentration competition, proteome-wide
Assay type: binding
Conditions: for fold change: vehicle control = 1

In the case of Nc1nc2c(c(=O)[nH]1)N(C=O)C(CNc1ccc(C(=O)N[C@@H](CCC(=O)O)C(=O)O)cc1)CN2 (stereo partly drawn) [LEU, leucovorin], the “fold change vs vehicle control” value (protein LMJF.28.0490 PROPIONYL-COA C[…] CHAIN, PUTATIVE) is reported as 1.09, the fold change (protein LMJF.28.0710 HYPOTHETICAL PROTEIN, CONSERVED (SNARE associated Golgi protein, putative)) is reported as 0.76 and the “fold change vs vehicle control” value (protein LMJF.28.0930 HYPOTHETICAL PROTEIN, CONSERVED) is reported as 0.9. The “fold change vs vehicle control” value (protein LMJF.28.0960 40S RIBOSOMAL PROTEIN S14) was 1.06, the “fold change vs vehicle control” value (protein LMJF.28.1530 ATP DEPENDENT DEAD-BOX HELICASE, PUTATIVE) was 0.95 and the “fold change relative to vehicle control” value (protein LMJF.28.1730, […]-ATP-ASE SUBUNIT 2, PUTATIVE) was 1.27. For the same molecule, the “fold change vs vehicle control” value (protein LMJF.28.2430 VACUOLAR ATP SYNTHASE SUBUNIT B, PUTATIVE) was 1.01, the “fold change relative to vehicle control” value (protein LMJF.28.2770, HEAT-SHOCK PROTEIN HSP70, PUTATIVE) was 1.32 and the fold change (protein LMJF.28.2910 GLUTAMATE DEHYDROGENASE, PUTATIVE) was 1.1. The “fold change vs vehicle control” value (protein LMJF.29.0120 […]-ATPASE SUBUNIT, PUTATIVE) was 1.15, the fold change (protein LMJF.29.0620 ATP-BINDING CASSETTE PROTEIN SUBFAMILY A, MEMBER 10, PUTATIVE) was 0.8 and the “fold change vs vehicle control” value (protein LMJF.29.0760 […] BI[…], PUTATIVE,HEAT SHOCK PROTEIN 90, PUTATIVE) was 1.05. The “fold change relative to vehicle control” value (protein LMJF.29.0850, HIGH MOBILITY GROUP PROTEIN HOMOLOG TDP-1, PUTATIVE) was 2.2, the “fold change vs vehicle control” value (protein LMJF.29.0940 HY[…], CONSERVED) was 1.06 and the “fold change vs vehicle control” value (protein LMJF.29.1160 TRYPAREDOXIN) was 1.05. For the same molecule, the “fold change vs vehicle control” value (protein LMJF.29.1240 HYPOTHETICAL PROTEIN, UNKNOWN FUNCTION) was 0.99, the “fold change vs vehicle control” value (protein LMJF.29.1270 100 kDa heat shock protein (Hsp100)) was 0.99 and the “fold change vs vehicle control” value (protein LMJF.29.1310 CARNITINE/CHOLINE ACETYLTRANSFERASE, PUTATIVE) was 0.93. The “fold change relative to vehicle control” value (protein LMJF.29.1760, PAR[…] PROTEIN 1D, PUTATIVE) was 1.22, the “fold change vs vehicle control” value (protein LMJF.29.1780 D[…] PROTEIN, PUTATIVE) was 1.01 and the fold change (protein LMJF.29.2200 GTP-BINDING PROTEIN, PUTATIVE (dynamin-1-like protein)) was 0.99. For the same molecule, the fold change (protein LMJF.29.2310 ENOYL-COA HYDRATASE/ISOMERASE-LIKE PROTEIN) was 0.93, the “fold change vs vehicle control” value (protein LMJF.29.2360 ASPARTYL AMINOPEPTIDASE, PUTATIVE,METALLO-PEPTIDASE, CLAN MH, FAMILY M20) was 1.08 and the fold change (protein LMJF.29.2860 40S RIBOSOMAL PROTEIN S19-LIKE PROTEIN) was 1.01. For the same molecule, the fold change (protein LMJF.30.0580 HYPOTHETICAL PROTEIN, CONSERVED (AMP-binding enzyme, putative)) was 0.99, the fold change (protein LMJF.30.0850 SURFACE PROTEIN AMASTIN, PUTATIVE) was 0.99 and the “fold change vs vehicle control” value (protein LMJF.30.1250 PYRIDOXAL KINASE, PUTATIVE) was 1.08. The “fold change vs vehicle control” value (protein LMJF.30.2580 RETICULON DOMAIN PROTEIN, 22 KDA POTENTIALLY AGGRAVATING PROTEIN (PAPLE22)) was 0.97, the “fold change relative to vehicle control” value (protein LMJF.30.3090, HY[…], CONSERVED (RNA-binding protein 42, putative)) was 1.16 and the “fold change vs vehicle control” value (protein LMJF.30.3240 GLUTAMYL-TRNA SYNTHETASE, PUTATIVE) was 0.9. It also gave a fold change (protein LMJF.30.3380 PAS-DOMAIN CONTAINING PHOSPHOGLYCERATE KINASE, PUTATIVE) of 0.97, a fold change (protein LMJF.30.3430 HYPOTHETICAL PROTEIN, CONSERVED (protein mkt1, putative)) of 0.93 and a fold change (protein LMJF.30.3520 S-ADENOSYLMETHIONINE SYNTHETASE) of 0.9. The fold change (protein LMJF.30.3570 ZINC FINGER-DOMAIN PROTEIN, PUTATIVE) was 0.81, the “fold change relative to vehicle control” value (protein LMJF.31.0080, HY[…], CONSERVED) was 1.25 and the “fold change vs vehicle control” value (protein LMJF.31.0340 AMINO ACID PERMEASE, PUTATIVE) was 1.03. The fold change (protein LMJF.31.1130 N-ACYL-L-AMINO ACID AMIDOHYDROLASE, PUTATIVE) was 1, the “fold change vs vehicle control” value (protein LMJF.31.1640 THIOLASE PROTEIN-LIKE PROTEIN) was 1.02 and the “fold change relative to vehicle control” value (protein LMJF.31.2150, PROSTAGLANDIN F2-ALPHA SYNTHASE/D-ARABINOSE DEHYDROGENASE) was 1.25. For the same molecule, the “fold change vs vehicle control” value (protein LMJF.31.2250 3,2-TRANS-ENOYL-COA ISOMERASE, MIT[…], PUTATIVE) was 0.92, the “fold change vs vehicle control” value (protein LMJF.32.0750 RNA BINDING PROTEIN, PUTATIVE) was 1.05 and the “fold change vs vehicle control” value (protein LMJF.32.1060 DYNEIN, PUTATIVE) was 1.02. For the same molecule, the “fold change relative to vehicle control” value (protein LMJF.32.1820, IRON […], PUTATIVE) was 1.22, the “fold change relative to vehicle control” value (protein LMJF.32.2320, C-14 STEROL REDUCTASE, PUTATIVE) was 1.12 and the “fold change vs vehicle control” value (protein LMJF.32.3870 MYOSIN XXI) was 0.9. For the same molecule, the “fold change relative to vehicle control” value (protein LMJF.33.0240, THIOL-DEPENDENT REDUCTASE 1) was 1.13, the fold change (protein LMJF.33.0280 HYPOTHETICAL PROTEIN, CONSERVED) was 0.89 and the “fold change relative to vehicle control” value (protein LMJF.33.0890, HY[…], CONSERVED) was 0.98. The “fold change vs vehicle control” value (protein LMJF.33.1070 HY[…], UNKNOWN FUNCTION) was 1.03, the “fold change vs vehicle control” value (protein LMJF.33.1330 CYSTEINE CONJUGATE BETA-LYASE, AMINOTRANSFERASE- LIKE PROTEIN) was 0.87 and the fold change (protein LMJF.33.1590 HY[…], CONSERVED (3-ketoacyl-CoA reductase, putative)) was 1.46. For the same molecule, the “fold change relative to vehicle control” value (protein LMJF.33.1860, ATP-BINDING CASSETTE PROTEIN SUBFAMILY D, MEMBER 3, PUTATIVE) was 1.04, the “fold change relative to vehicle control” value (protein LMJF.33.2340, SUCCINYL-COA:3-KETOACID-COENZYME A TRANSFERASE, MIT[…], PUTATIVE) was 1.09 and the “fold change relative to vehicle control” value (protein LMJF.33.2440, HY[…], CONSERVED) was 1.07. The “fold change relative to vehicle control” value (protein LMJF.33.2540, CARBOXYPEPTIDASE, PUTATIVE,METALLO-PEPTIDASE, CLAN MA(E), FAMILY M32) was 1.95, the fold change (protein LMJF.33.3150 40S RIBOSOMAL PROTEIN S13, PUTATIVE) was 0.89 and the “fold change relative to vehicle control” value (protein LMJF.34.0140, MALATE DEHYDROGENASE) was 1.53. For the same molecule, the “fold change vs vehicle control” value (protein LMJF.34.0440 RIBOSOMAL PROTEIN S25) was 1.25, the “fold change relative to vehicle control” value (protein LMJF.34.2580, HY[…], CONSERVED (ALBA-domain protein 3)) was 1.01 and the “fold change relative to vehicle control” value (protein LMJF.34.3250, PUTATIVE PYRUVATE/INDOLE-PYRUVATE CARBOXYLASE, PUTATIVE) was 1.08. The fold change (protein LMJF.34.4370 20S PROTEASOME BETA 7 SUBUNIT, (PUTATIVE)) was 0.92, the “fold change vs vehicle control” value (protein LMJF.34.4620 HYPOTHETICAL PROTEIN, CONSERVED) was 0.95 and the fold change (protein LMJF.35.0070 PROHIBITIN, PUTATIVE) was 0.93. The “fold change vs vehicle control” value (protein LMJF.35.0360 ENOYL-COA HYDRATASE/ISOMERASE FAMILY PROTEIN, CONSERVED) was 1.24, the fold change (protein LMJF.35.0370 ATP-DEPENDENT DEAD-BOX RNA HELICASE, PUTATIVE) was 0.97 and the fold change (protein LMJF.35.0420 40S RIBOSOMAL PROTEIN S3A, PUTATIVE) was 1.03.

From article PMC6199744, “Development of Chemical Proteomics for the Folateome and Analysis of the Kinetoplastid Folateome” (ACS Infectious Diseases, 2018)
